The source made the active and inactive calls.
Key:
Protein Tat = Protein Tat (Human immunodeficiency virus type 1 group M subtype B (isolate HXB2)(HIV-1), UniProt P04608); format: functional;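 further: tat binding to TAR RNA read out by fluorescence polarization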
[1] = Luminescence Cell-Based Dose Confirmation HTS to Identify Activators of 5'UTR Stem-Loop Driven Alpha-Synuclein mRNA Translation in H4 Neuroglioblastoma Cells. [Related pubchem assays: 1829 (Project Summary), 1814 (Primary HTS)]; format: functional
[2] = Luminescence Cell-Based Dose Response HTS to Identify Activators of Luciferase Translation or Activity in H4 […] Cells. [Related pubchem assays: 1829 (Project Summary), 1814 (Primary HTS)]; format: functional
H4 = assay: Luminescence Cell-Based Dose Response HTS to Identify Activators of 5'UTR Stem-Loop Driven Prion Protein mRNA Translation in H4 Neuroglioblastoma Cells. [Related pubchem assays: 1829 (Project Summary), 1814 (Primary HTS)]; format: functional; settings: Homo sapiens
Transthyretin = Transthyretin (Homo sapiens, UniProt P02766); assay: Luminescence-based cell-based high throughput dose response assay to identify activators of Transthyretin (TTR) transcription.; format: functional
Large T antigen = Large T antigen (Simian virus 40, UniProt P03070); format: functional, Betapolyomavirus macacae;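 further: Confirmatory-stage PubChem screen for compounds that inhibit SV40 T antigen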
Large T antigen, sequence (P03070 whole entry): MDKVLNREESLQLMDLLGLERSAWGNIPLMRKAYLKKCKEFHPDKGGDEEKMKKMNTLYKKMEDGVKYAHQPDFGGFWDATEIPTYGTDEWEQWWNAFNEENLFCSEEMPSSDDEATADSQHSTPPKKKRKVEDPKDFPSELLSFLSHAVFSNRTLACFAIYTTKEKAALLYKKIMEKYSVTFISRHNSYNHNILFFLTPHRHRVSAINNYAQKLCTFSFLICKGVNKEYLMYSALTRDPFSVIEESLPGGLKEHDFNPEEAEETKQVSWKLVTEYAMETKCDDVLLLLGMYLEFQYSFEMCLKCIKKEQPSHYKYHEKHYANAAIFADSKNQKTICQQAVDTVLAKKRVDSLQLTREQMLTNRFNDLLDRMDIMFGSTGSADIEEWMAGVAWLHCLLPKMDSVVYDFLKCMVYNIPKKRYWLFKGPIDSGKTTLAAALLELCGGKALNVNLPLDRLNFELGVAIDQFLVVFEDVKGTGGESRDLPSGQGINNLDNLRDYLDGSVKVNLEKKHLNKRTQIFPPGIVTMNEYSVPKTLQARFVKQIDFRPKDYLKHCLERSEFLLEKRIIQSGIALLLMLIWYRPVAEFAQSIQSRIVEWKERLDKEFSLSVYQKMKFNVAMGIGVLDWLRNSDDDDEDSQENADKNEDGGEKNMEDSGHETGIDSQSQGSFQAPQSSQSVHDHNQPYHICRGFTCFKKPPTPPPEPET

[3] = target: T1, Replicative DNA helicase DnaB (Mycobacterium tuberculosis, UniProt P9WMR3); assay: DnaB intein splicing inhibitors, dose response, biochemical, cell-free fluorescence (AID 449749); format: functional
T1 sequence (P9WMR3 whole entry): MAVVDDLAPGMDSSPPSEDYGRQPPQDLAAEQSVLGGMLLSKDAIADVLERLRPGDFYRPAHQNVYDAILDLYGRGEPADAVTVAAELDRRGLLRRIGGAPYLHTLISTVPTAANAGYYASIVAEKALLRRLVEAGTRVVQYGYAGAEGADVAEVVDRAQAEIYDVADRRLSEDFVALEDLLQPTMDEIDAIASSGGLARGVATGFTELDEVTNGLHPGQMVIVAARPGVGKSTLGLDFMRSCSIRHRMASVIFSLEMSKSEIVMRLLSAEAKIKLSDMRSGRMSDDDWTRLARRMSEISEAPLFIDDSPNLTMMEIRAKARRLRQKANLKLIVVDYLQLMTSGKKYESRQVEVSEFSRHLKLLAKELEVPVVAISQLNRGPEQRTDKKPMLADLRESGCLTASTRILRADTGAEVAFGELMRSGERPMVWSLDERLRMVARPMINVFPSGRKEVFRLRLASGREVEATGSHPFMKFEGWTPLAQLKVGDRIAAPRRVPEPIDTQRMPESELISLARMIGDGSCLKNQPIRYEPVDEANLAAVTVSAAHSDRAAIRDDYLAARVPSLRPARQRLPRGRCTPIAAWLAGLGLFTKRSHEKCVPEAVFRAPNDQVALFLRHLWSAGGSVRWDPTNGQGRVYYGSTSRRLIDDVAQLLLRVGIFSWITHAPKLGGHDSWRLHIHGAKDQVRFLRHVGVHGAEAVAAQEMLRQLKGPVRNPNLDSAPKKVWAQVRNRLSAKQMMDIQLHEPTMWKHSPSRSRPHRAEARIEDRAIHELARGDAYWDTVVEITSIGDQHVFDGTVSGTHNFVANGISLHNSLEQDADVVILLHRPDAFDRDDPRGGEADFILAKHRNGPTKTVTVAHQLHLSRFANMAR

Protein RecA = target: T2, Protein RecA (Mycobacterium tuberculosis, UniProt P9WHJ3); assay: Fluorescence Cell-Free Homogeneous Dose Retest to Identify Inhibitors of RecA-Intein Splicing Activity. [Related pubchem assays (depositor defined):AID2097, AID2223, AID489010, AID492950]; format: functional
T2 sequence (P9WHJ3 whole entry): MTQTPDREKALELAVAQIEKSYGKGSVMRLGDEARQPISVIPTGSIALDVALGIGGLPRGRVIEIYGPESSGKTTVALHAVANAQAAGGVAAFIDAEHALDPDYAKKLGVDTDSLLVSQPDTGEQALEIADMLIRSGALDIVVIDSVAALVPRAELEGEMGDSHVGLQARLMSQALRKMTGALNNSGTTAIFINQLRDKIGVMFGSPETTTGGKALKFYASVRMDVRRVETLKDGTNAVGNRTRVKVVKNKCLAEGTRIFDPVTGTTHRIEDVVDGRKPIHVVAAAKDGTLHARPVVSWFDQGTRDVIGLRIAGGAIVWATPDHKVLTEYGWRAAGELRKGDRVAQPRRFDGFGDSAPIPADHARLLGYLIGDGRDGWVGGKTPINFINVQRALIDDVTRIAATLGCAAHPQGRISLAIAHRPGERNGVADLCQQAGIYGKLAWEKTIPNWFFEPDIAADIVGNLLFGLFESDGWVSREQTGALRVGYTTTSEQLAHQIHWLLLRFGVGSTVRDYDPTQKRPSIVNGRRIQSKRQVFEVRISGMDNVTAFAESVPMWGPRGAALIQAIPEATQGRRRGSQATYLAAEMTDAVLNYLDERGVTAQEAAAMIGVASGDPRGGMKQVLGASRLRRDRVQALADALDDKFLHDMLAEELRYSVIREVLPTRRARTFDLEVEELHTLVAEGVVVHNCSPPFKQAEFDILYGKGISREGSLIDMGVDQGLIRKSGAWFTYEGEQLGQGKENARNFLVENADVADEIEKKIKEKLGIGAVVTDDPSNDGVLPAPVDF

Paired box protein Pax-8 = Paired box protein Pax-8 (Homo sapiens, UniProt Q06710); assay: PAX8 transcriptional activity inhibition in RMG-I – RMG-I cells, luciferase, cherry-pick, dose response (AID 687027); format: functional, cell-based;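 further: luciferase reporter driven by Pax8 target thyroperoxidase promoter measured by SteadyGlo luminescence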
Paired box protein Pax-8, sequence (Q06710 whole entry): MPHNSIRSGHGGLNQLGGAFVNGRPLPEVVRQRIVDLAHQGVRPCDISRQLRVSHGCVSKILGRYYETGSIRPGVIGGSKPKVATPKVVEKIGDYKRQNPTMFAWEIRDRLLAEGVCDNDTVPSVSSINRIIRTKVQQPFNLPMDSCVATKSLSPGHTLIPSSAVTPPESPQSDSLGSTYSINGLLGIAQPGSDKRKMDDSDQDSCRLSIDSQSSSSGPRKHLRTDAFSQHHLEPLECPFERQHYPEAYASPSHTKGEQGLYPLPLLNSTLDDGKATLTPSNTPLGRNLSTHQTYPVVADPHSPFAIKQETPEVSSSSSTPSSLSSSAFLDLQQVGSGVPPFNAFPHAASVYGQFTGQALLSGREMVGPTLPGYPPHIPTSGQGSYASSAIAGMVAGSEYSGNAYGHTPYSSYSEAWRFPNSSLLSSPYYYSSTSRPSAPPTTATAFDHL

[4] = toxicity toward immortalized ovarian surface epithelium – cell-based, plate reader, dry powder samples, cytotoxicity control for PAX8 inhibitor project, dose response (AID 743045); format: functional
[5] = A2780 cell killing – plate reader, dry powder samples, cytotoxicity control, dose response (AID 743046); format: functional, cell-based
[6] = OVCAR-3 cell viability loss – plate reader, dry powder samples, PAX8 inhibitor project, dose response (AID 743044); format: functional, cell-based
[7] = IGROV1 cell killing – plate reader, dry powder samples, PAX8 inhibitor project, dose response (AID 743043); format: functional, cell-based; settings: IGROV-1
[8] = OVCAR8 cell viability loss – plate reader, dry powder samples, PAX8 project, dose response (AID 743197); format: functional, cell-based; settings: OVCAR-8
HEK293 = assay: viability loss in HEK293T cells – cell-based, ATP luminescence, cherry-pick samples, cytotoxicity control, dose response (AID 687005); format: functional; settings: Homo sapiens;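 further: cells exposed to compound for 48 hours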
[9] = HEK293 Cytotoxicity Assay Measured in Cell-Based System Using Plate Reader - 7071-01_Inhibitor_Dose_CherryPick_Activity_Set2.; format: functional
[10] = MITF Orthogonal Assay: SK-MEL-5 CTG Assay Measured in Cell-Based System Using Plate Reader - 2084-02_Inhibitor_Dose_DryPowder_Activity_Set7.; format: functional
[11] = MITF: Counter assay: A375 proliferation Measured in Cell-Based System Using Plate Reader - 2084-03_Inhibitor_Dose_DryPowder_Activity_Set8.; format: functional; settings: A-375
[12] = inhibitors of TRPM1-promoter reporter in SK-MEL-5 – cell-based, luciferase, dry powder, set 8, MITF inhibitor project, dose response (AID 624430); format: functional
[13] = target: Metabotropic glutamate receptor 5 (Rattus norvegicus, UniProt P31424); assay: Identification of a glycine sulfonamide based non-MPEP site positive allosteric potentiator (PAM) of mGlu5 (calcium_assay).; format: functional
Metabotropic glutamate receptor 5, sequence (P31424 whole entry): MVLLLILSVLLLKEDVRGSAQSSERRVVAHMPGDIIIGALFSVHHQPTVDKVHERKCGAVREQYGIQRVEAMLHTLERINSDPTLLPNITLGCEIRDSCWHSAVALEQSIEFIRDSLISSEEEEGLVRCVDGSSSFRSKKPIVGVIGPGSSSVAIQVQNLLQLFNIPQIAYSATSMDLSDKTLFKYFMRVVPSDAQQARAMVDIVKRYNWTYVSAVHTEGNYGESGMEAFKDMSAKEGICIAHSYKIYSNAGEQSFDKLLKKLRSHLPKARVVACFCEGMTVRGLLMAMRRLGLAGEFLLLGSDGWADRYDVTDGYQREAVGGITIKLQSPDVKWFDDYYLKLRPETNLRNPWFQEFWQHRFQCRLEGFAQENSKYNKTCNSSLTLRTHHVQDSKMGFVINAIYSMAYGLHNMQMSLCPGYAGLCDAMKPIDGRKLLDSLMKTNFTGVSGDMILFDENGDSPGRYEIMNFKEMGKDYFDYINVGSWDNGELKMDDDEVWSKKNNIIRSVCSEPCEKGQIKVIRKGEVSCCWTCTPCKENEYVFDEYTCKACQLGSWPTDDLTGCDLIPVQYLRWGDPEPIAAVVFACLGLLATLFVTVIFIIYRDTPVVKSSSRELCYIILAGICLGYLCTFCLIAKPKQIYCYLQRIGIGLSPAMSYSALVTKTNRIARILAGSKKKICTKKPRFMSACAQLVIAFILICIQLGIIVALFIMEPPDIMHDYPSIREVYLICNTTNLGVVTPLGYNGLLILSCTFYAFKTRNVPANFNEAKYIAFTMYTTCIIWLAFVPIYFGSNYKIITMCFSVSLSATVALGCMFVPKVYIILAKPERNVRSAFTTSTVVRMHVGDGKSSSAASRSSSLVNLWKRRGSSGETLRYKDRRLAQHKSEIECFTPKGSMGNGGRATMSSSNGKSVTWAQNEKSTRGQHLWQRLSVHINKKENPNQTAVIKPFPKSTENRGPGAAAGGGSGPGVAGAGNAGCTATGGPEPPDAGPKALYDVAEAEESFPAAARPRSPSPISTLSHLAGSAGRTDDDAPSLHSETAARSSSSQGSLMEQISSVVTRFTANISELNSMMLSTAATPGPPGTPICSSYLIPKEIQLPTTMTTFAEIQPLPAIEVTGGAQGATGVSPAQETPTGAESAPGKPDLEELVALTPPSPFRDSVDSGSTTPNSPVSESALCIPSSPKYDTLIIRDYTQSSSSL

[14] = target: Induced myeloid leukemia cell differentiation protein Mcl-1 (Homo sapiens, UniProt Q07820); format: functional
Induced myeloid leukemia cell differentiation protein Mcl-1, sequence (Q07820 whole entry): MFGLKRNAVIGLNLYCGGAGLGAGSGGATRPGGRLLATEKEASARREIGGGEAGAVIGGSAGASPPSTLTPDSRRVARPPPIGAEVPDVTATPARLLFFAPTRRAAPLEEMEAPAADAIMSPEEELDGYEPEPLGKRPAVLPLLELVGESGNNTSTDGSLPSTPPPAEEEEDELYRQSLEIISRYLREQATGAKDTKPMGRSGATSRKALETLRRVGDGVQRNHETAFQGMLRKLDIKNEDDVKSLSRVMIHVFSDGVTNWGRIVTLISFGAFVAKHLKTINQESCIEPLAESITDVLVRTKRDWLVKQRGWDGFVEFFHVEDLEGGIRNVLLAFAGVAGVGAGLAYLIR

[15] = target: T3, Mannose-6-phosphate isomerase (Homo sapiens, UniProt P34949); assay: MPI inhibition at elevated mannose 6-phosphate – biochemical, fluorescence intensity, high mannose 6-phosphate, primary screen (AID 1220)
T3 sequence (P34949 whole entry): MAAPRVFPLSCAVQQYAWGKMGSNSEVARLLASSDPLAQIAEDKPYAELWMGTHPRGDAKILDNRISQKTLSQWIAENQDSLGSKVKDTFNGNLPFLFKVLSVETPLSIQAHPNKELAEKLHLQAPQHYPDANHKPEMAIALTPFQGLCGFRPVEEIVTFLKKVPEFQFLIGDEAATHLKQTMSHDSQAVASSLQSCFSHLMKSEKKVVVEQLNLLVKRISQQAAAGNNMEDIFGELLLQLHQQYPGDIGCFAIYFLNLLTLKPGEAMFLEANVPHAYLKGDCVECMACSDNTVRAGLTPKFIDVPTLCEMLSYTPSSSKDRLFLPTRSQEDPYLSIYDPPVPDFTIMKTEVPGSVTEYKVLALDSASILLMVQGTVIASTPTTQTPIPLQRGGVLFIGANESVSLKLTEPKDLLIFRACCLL

Genome polyprotein = Genome polyprotein (dengue virus type 2, UniProt P29990); assay: flavivirus cap methylation enzyme inhibition – biochemical, confirmation dose response, primary screen (AID 588689); format: functional
Genome polyprotein, sequence (P29990 2492-3391 limits assumed): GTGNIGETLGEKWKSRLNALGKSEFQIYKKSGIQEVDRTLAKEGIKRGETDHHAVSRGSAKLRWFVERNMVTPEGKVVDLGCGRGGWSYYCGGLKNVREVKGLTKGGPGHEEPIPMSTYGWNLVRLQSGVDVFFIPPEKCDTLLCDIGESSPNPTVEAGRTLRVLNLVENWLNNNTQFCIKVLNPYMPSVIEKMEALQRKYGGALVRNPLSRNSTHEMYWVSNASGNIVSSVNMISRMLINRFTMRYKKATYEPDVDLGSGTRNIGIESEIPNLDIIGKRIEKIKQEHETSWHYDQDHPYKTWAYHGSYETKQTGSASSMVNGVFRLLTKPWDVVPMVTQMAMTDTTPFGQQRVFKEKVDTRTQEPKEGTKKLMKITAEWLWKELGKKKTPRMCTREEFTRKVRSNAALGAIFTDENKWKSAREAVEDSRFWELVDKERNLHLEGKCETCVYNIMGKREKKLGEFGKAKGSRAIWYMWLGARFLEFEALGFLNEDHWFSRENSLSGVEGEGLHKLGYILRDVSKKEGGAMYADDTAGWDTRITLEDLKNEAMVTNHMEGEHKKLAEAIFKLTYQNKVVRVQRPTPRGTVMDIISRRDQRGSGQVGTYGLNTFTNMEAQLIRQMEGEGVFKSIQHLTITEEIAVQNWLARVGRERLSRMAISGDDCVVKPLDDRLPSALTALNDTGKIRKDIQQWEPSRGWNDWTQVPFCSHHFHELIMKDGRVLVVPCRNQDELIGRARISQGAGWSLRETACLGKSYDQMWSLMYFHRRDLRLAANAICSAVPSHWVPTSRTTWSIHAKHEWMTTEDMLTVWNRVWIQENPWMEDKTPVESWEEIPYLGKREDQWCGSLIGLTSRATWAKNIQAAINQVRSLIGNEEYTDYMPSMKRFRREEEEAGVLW

[16] = target: T4, Histone-lysine N-methyltransferase NSD2 (Homo sapiens, UniProt O96028); format: biochemical
T4 sequence (O96028 whole entry): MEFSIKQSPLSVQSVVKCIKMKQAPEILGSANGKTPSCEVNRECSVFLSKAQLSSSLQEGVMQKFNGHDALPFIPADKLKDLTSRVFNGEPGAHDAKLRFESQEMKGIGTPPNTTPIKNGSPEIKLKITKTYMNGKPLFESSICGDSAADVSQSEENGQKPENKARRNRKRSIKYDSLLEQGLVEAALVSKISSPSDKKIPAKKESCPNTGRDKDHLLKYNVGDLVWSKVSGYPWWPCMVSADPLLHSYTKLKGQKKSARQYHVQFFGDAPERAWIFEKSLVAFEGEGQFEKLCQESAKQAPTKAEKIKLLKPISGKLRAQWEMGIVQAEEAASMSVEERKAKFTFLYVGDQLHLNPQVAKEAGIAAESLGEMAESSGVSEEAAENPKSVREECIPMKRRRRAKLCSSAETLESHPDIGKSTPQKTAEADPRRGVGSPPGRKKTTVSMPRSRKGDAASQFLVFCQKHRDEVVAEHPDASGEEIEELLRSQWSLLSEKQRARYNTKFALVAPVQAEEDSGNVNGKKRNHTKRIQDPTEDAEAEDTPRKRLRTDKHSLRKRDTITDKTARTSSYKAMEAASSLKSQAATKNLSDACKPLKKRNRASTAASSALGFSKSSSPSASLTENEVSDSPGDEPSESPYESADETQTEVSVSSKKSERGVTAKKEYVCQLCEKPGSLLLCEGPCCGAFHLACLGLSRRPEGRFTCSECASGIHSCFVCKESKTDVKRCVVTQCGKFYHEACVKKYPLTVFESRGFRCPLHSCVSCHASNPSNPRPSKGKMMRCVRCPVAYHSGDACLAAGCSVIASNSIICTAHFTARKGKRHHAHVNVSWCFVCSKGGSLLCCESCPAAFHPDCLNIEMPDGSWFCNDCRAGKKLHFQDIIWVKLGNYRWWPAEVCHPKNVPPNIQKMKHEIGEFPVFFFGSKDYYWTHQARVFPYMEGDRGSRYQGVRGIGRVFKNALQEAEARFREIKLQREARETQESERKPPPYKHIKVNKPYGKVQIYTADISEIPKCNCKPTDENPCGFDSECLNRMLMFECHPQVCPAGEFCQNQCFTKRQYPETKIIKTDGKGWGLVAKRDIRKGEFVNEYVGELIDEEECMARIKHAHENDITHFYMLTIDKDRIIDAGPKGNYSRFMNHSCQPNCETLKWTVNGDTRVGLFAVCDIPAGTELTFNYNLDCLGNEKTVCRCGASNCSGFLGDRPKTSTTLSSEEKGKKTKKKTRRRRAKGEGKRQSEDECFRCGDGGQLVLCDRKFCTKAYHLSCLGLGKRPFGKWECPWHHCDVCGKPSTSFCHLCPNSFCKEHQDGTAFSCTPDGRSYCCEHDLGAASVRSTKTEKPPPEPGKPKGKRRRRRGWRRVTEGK

[17] = target: RNA-editing ligase 1, mitochondrial (Trypanosoma brucei brucei, UniProt P86926); assay: inhibition of trypanosome RNA editing ligase – biochemical, fluorescence, Trypanosoma brucei, dose response (AID 1117295); format: functional
RNA-editing ligase 1, mitochondrial, sequence (P86926 whole entry): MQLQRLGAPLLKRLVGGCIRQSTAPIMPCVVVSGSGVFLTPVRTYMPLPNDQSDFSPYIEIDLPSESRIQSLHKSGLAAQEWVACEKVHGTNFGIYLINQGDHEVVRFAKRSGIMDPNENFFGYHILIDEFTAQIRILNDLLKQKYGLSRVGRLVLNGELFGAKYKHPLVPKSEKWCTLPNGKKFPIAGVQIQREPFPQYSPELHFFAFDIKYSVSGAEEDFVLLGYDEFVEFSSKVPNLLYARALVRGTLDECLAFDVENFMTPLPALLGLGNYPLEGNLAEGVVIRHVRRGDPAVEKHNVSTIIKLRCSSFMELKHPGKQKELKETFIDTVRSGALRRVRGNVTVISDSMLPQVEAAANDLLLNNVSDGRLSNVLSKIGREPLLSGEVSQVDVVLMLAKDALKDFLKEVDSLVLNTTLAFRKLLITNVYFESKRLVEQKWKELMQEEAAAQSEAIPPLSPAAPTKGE

cells = settings: HEK293;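 further: cells exposed to compound for 48 hours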

Protein Tat, sequence (P04608 whole entry): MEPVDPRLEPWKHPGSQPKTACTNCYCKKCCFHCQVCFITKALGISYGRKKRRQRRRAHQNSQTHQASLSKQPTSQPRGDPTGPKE

Cn1c(SCC(=O)c2cc(Cl)c(Cl)s2)nnc1-c1ccco1
IC50 (Protein Tat): > 50 µM (active)

c1ccc(Sc2ncnc3c2oc2ccccc23)nc1
EC50 [1]: 4.69 µM (active)
EC50 [2]: 26.6 µM (active)
EC50 (H4): 90.1 µM (active)
EC50 (Transthyretin): > 167 µM (inactive)

O=C(CCl)c1cc2c3c(c1)CC(=O)N3CCC2
IC50 (Large T antigen): 40.6 µM (active)
AC50 [3]: 35.9 µM (active)
EC50 (Protein RecA): 11.7 µM (active)
EC50 (Transthyretin): > 167 µM (inactive)

C[C@@H]1CCCCO[C@@H](CN(C)CC2CCCCC2)[C@H](C)CN([C@H](C)CO)C(=O)c2cc(NS(=O)(=O)c3ccc(Cl)cc3)ccc2O1
AC50 (Paired box protein Pax-8): 5.5 µM (active)
AC50 [4]: 41.4 µM (active)
AC50 [5]: 20.4 µM (active)
AC50 [6]: 23.4 µM (active)
AC50 [7]: 33.5 µM (active)
AC50 [8]: 25.6 µM (active)

O=C(C[C@@H]1CC[C@H]2[C@@H](COC[C@@H](O)CN2Cc2ccc(Cl)cc2)O1)NCc1cccc(F)c1
AC50 (HEK293): 21.4 µM (active)
AC50 [9]: 21.4 µM (active)

CCS(=O)(=O)NCC[C@H]1CC[C@H](NS(=O)(=O)c2cccc(F)c2)[C@H](CO)O1
AC50 (HEK293): 33.5 µM (active)
AC50 [9]: 33.5 µM (active)

COc1ccc(S(=O)(=O)Nc2ccc3c(c2)C(=O)N([C@H](C)CO)C[C@H](C)[C@@H](CN(C)S(=O)(=O)c2ccc(C)cc2)OCCCC[C@H](C)O3)cc1
AC50 (Paired box protein Pax-8): 6.27 µM (active)
AC50 [4]: 9.47 µM (active)
AC50 [5]: 44 µM (active)
AC50 [6]: 11.8 µM (active)
AC50 [7]: 33.5 µM (active)
AC50 [8]: 14.8 µM (active)

O=C1C(Nc2ccccc2)=CC(=O)c2ncccc21
AC50 [10]: 0.195 µM (active)
AC50 [11]: 16.2 µM (active)
AC50 [12]: 0.413 µM (active)

CS(=O)(=O)N(CC(=O)Nc1cccnc1F)c1ccccc1Cl
EC50 [13]: 1.69 µM

CN(C(=O)CN(c1ccccc1Cl)S(C)(=O)=O)c1ccccc1
EC50 [13]: 10 µM (inconclusive)

O=C(Cc1csc(N2CCOCC2)n1)N/N=C/c1ccc(O)c(O)c1O
IC50 [14]: 3.52 µM (active)
IC50 [15]: 8.94 µM (active)
IC50 (Genome polyprotein): > 100 µM (active)
AC50 [16]: > 20 µM (inactive)
IC50 [17]: > 96.6 µM (inactive)

CSc1nc2ccccc2n1CCOc1ccccc1
AC50 (cells): > 52 µM (inactive)

— ChEMBL document CHEMBL1201862, “PubChem BioAssay data set” (2004)
